Experimental data as given in ChEMBL document CHEMBL1201862, “PubChem BioAssay data set” (2004).
Active and inactive are the calls of the source.

Experiments:
[1] = molecular target: T1, Sentrin-specific protease 8 (Homo sapiens, UniProt Q96LD8); assay type: functional
T1 sequence (Q96LD8 whole entry): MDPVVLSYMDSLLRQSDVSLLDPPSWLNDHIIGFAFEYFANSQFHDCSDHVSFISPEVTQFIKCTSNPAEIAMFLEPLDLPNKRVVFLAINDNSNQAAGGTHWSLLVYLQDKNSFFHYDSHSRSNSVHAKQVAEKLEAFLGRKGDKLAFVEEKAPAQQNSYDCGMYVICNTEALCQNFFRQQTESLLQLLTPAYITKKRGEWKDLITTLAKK

[2] = molecular target: Heat shock protein HSP 90-alpha (Homo sapiens, UniProt P07900); assay type: functional, organism-based
[3] = molecular target: T1, Sentrin-specific protease 8; assay type: functional; remark: listed apart in the source
[4] = non-specific 3'UTR reporter inhibition in Clone20-Shn3RL – cell-based, Renilla luciferase, cherry-picked, counter-screen for Shn3 inhibitor project, dose response (AID 624133); assay type: functional
[5] = molecular target: Intestinal-type alkaline phosphatase (Homo sapiens, UniProt P09923); assay: inhibition of human intestinal alkaline phosphatase – biochemical, dose response (AID 488876); assay type: functional
[6] = molecular target: Intestinal-type alkaline phosphatase (Mus musculus, UniProt P24822); assay: PubChem AID 488785; assay type: functional
Vero = assay: viability of Vero cells under compound – cytotoxicity control for flavivirus capping enzyme inhibitors (AID 588742); assay type: functional; settings: Chlorocebus sabaeus
[7] = molecular target: T2, Alkaline phosphatase, tissue-nonspecific isozyme (Homo sapiens, UniProt P05186); assay: TNAP enzyme inhibition by screening hits, dose response, selectivity assay for mouse IAP inhibitor project, biochemical, human TNAP, uHTS hits (AID 488906); assay type: functional
T2 sequence (P05186 whole entry): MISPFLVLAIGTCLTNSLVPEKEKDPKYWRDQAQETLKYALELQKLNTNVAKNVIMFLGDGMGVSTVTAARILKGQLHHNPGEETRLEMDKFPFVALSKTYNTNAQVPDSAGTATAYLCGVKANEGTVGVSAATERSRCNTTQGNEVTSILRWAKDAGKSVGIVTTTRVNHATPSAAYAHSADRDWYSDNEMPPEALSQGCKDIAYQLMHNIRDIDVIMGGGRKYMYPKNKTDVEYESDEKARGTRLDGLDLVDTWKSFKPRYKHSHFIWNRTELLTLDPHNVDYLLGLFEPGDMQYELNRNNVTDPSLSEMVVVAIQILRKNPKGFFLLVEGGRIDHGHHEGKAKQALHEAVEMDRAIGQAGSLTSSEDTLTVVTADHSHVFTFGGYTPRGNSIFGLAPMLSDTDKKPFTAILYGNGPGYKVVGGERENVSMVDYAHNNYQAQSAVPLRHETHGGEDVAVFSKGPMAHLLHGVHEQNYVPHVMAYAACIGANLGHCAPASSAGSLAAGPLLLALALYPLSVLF

[8] = reduction of Shn3 3'UTR-driven luciferase in osteoblasts – cell-based, Clone20 osteoblasts, firefly luciferase, cherry-picked, dose response (AID 624132); assay type: functional;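 note: firefly luciferase luminescence from reporter carrying the Shn3 3'UTR in osteoblasts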
[9] = molecular target: Histone-lysine N-methyltransferase NSD2 (Homo sapiens, UniProt O96028); assay type: biochemical
Large T antigen = Large T antigen (Simian virus 40, UniProt P03070); assay type: functional, Betapolyomavirus macacae;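 note: Confirmatory-stage PubChem screen for compounds that inhibit SV40 T antigen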
Genome polyprotein = Genome polyprotein (dengue virus type 2, UniProt P29990); assay: flavivirus cap methylation enzyme inhibition – biochemical, confirmation dose response, primary screen (AID 588689); assay type: functional
Caspase-6 = molecular target: T3, Caspase-6 (Homo sapiens, UniProt P55212); assay: inhibition of CASP6 peptide cleavage – biochemical, VEID-R110 fluorescence, cherry-pick, dose response (AID 720632)
T3 sequence (P55212 whole entry): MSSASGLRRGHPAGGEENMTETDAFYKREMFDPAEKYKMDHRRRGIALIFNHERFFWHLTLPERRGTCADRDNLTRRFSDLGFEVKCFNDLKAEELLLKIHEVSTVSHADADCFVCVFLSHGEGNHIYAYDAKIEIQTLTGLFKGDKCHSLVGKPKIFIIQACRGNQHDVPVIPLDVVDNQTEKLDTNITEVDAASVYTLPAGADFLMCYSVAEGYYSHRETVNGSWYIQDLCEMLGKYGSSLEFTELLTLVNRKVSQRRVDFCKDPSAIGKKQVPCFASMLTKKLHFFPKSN

[10] = molecular target: T4, Sentrin-specific protease 1 (Homo sapiens, UniProt Q9P0U3); assay: SENP1 catalytic domain blockers, concentration series – biochemical, kinetic FRET, dose response (AID 651697); assay type: functional; settings: read-out: IC50_Mean
T4 sequence (Q9P0U3 whole entry): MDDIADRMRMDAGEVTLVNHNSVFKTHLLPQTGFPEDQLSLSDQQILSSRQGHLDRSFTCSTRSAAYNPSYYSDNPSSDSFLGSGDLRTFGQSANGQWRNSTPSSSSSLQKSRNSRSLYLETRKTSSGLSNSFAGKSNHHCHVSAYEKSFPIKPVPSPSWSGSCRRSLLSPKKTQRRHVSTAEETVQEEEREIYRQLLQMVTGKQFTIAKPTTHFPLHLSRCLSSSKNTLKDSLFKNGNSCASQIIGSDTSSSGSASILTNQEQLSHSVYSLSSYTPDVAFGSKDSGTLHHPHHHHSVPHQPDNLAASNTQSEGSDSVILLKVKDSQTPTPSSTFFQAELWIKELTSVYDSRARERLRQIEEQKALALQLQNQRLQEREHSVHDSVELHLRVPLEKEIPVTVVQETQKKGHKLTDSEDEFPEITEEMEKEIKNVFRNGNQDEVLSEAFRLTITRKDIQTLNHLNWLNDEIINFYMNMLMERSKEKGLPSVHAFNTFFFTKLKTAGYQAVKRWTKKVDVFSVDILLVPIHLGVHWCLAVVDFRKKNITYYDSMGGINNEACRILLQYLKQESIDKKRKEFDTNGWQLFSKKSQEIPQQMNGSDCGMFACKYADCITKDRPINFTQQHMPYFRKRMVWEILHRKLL

[11] = molecular target: T4, Sentrin-specific protease 1; assay: Dose response confirmation of small molecule inhibitors of the catalytic domain of the SUMO protease, SENP1 in a FRET assay.; assay type: functional; settings: read-out: IC50_Mean
BJ [12] = assay: BJ-TERT fibroblast viability loss – cell-based, RAS-independent, luminescence, dose response (AID 1933); assay type: functional; settings: Homo sapiens
[13] = molecular target: Luciferin 4-monooxygenase (Photinus pyralis, UniProt P08659); assay: inhibition of purified Photinus pyralis luciferase – biochemical, luminescence, dose response (AID 1891)
BJ [14] = assay: cells; assay type: functional, cell-based; settings: Homo sapiens
[15] = DRD fibroblast viability loss – cell-based, non-viral oncogenic, luminescence, dose response (AID 1934); assay type: functional; settings: Homo sapiens
[16] = Luminescence Cell-Based Dose Confirmation HTS to Identify Inhibitors of Platelet Dense Granule Release. [Related pubchem assays: 1663 (Primary HTS), 1678 (Summary of Project)]; assay type: functional
BJ [17] = assay: BJ-TERT-LT-ST fibroblast viability loss – cell-based, RAS-independent, luminescence, dose response (AID 1935); assay type: functional; settings: Homo sapiens;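 note: BJ fibroblasts immortalized with TERT plus LT and ST oncogenes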
[18] = molecular target: Glucose-6-phosphate 1-dehydrogenase (Homo sapiens, UniProt P11413); assay: inhibition of Homo sapiens G6PD, dose series – biochemical, fluorescence, selectivity assay for P. falciparum G6PD inhibitor project, dose response (AID 504792); assay type: functional
Sequence of Glucose-6-phosphate 1-dehydrogenase (P11413 whole entry): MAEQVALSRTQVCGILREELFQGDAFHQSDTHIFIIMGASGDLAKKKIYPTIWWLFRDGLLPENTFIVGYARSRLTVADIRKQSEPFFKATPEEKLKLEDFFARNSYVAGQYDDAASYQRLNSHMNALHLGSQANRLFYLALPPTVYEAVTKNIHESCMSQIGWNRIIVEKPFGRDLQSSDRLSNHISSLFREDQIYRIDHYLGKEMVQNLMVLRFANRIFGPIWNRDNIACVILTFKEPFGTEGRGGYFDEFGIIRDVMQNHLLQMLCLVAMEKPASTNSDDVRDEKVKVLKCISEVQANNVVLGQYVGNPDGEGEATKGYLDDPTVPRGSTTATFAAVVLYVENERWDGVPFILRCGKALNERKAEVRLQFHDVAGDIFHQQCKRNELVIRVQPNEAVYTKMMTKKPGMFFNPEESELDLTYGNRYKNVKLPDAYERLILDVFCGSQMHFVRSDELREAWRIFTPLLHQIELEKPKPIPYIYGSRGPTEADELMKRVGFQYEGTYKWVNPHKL

Sequence of Genome polyprotein (P29990 2492-3391 limits assumed): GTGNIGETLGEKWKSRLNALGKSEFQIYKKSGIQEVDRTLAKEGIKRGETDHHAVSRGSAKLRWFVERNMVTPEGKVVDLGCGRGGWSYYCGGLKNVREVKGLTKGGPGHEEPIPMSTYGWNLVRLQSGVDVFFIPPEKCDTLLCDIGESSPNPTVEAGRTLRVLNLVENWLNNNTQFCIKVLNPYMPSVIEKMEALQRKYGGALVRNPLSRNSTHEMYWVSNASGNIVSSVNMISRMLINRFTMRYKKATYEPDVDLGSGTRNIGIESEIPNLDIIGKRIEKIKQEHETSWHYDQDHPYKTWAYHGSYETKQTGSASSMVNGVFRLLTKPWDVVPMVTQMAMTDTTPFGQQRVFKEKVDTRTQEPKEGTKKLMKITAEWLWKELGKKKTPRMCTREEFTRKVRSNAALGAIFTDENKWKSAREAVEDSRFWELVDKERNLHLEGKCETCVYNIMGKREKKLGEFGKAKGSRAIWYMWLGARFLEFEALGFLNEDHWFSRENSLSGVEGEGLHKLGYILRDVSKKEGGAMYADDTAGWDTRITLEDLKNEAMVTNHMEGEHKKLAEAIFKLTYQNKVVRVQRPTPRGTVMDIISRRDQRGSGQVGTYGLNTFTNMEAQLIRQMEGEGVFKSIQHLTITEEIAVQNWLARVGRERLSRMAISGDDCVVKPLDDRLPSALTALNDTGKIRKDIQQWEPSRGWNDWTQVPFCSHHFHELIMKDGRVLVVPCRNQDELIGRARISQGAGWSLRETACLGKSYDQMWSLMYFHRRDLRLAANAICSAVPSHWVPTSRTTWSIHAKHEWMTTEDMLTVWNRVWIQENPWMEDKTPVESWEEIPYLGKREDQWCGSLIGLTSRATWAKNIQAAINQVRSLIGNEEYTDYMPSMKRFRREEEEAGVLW
Sequence of Histone-lysine N-methyltransferase NSD2 (O96028 whole entry): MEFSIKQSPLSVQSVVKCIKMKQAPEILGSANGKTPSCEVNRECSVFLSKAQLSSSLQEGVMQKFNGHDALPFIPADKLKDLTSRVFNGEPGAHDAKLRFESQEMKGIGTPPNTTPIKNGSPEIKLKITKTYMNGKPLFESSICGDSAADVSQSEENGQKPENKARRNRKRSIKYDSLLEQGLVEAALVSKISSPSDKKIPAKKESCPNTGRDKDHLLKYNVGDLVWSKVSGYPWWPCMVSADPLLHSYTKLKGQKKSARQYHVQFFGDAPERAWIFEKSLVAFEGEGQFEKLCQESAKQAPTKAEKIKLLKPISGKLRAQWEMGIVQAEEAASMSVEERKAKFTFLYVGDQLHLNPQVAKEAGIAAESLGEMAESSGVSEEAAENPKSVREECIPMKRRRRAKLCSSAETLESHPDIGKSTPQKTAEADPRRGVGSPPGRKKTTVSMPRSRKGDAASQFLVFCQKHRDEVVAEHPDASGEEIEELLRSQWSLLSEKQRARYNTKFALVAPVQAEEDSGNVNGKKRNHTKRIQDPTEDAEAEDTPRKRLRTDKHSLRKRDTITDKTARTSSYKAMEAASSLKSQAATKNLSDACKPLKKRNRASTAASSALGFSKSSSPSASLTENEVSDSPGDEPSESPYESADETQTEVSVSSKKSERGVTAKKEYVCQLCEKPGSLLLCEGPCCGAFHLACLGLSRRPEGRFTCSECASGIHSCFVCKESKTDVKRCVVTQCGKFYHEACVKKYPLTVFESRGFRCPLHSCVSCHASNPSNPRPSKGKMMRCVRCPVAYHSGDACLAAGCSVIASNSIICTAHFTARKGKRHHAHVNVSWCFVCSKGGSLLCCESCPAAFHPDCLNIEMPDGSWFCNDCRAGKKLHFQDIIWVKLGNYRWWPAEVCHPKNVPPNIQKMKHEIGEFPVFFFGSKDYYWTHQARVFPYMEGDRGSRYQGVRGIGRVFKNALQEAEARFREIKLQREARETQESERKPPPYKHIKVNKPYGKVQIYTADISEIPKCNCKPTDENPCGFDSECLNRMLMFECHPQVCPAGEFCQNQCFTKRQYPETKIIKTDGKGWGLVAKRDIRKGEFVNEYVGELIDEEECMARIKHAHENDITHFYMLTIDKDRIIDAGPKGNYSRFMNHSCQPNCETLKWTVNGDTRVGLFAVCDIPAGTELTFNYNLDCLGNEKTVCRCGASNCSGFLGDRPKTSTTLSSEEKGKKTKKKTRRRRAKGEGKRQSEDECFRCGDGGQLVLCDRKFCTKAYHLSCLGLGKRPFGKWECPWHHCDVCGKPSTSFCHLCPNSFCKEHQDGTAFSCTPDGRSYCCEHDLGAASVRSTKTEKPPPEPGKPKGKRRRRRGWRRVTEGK
Sequence of Luciferin 4-monooxygenase (P08659 whole entry): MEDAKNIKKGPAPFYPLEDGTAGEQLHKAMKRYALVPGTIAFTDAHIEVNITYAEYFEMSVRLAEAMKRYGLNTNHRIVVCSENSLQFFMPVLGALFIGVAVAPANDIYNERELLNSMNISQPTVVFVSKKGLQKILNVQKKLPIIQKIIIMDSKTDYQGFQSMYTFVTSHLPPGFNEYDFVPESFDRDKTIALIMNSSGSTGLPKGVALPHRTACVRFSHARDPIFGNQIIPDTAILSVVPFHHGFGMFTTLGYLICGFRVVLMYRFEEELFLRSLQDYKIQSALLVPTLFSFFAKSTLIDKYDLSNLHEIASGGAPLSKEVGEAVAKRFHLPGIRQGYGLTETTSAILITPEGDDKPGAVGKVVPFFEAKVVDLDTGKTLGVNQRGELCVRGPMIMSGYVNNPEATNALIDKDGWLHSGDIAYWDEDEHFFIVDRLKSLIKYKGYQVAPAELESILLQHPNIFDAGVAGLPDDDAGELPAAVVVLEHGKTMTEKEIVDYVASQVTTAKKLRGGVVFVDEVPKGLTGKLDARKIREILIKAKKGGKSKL
Sequence of Large T antigen (P03070 whole entry): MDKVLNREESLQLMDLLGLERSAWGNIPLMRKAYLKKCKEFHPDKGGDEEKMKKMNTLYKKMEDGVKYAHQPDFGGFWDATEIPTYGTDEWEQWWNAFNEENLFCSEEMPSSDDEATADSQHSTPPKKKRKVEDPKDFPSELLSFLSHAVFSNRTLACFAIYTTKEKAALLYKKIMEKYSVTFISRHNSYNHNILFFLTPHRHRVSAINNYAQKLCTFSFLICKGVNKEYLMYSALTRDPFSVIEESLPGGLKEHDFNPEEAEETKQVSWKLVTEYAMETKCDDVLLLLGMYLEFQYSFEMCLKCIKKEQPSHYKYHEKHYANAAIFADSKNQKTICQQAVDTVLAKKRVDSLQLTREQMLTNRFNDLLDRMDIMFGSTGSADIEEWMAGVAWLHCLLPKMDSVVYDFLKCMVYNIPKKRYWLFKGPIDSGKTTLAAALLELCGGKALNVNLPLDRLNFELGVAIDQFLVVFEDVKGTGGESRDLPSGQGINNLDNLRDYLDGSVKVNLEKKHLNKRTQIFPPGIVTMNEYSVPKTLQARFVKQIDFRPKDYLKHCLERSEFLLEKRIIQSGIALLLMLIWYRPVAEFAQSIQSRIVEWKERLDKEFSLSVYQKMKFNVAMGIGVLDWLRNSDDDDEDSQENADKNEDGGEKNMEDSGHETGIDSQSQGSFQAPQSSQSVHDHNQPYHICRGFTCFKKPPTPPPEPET
Sequence of Intestinal-type alkaline phosphatase (Mus musculus, UniProt P24822) (P24822 whole entry): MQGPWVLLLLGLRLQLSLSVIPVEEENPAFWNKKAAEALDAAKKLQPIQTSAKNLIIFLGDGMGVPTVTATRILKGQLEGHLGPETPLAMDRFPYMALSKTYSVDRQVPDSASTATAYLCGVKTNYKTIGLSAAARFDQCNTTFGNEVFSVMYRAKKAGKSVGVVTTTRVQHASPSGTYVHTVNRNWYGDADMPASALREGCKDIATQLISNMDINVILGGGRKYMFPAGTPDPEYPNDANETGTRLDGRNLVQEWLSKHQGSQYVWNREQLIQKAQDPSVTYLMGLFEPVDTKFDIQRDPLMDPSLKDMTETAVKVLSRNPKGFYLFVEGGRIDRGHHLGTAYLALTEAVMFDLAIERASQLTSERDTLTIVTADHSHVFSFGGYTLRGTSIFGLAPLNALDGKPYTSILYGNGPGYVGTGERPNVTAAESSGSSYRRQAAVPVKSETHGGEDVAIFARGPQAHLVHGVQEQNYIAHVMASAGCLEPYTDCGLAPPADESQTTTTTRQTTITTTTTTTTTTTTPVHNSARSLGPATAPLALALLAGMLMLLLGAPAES

CCOc1ccc(Br)cc1C1=NN(C(C)=O)C(c2ccc([N+](=O)[O-])s2)O1 (stereo unspecified)
IC50 [1]: 11 µM (active)
AC50 [2]: 7.83 µM (active)
IC50 [3]: 9.04 µM (active)

Oc1ccc(-c2csc(Nc3cccc4ccccc34)n2)cc1O
AC50 [4]: 7.93 µM (active)
IC50 [5]: 3.36 µM (active)
IC50 [6]: 1.63 µM (active)
CC50 (Vero): > 40 µM (active)
IC50 [7]: 78 µM (active)
AC50 [8]: 1.58 µM (active)
AC50 [9]: 10.5 µM (active)
IC50 (Large T antigen): 66.2 µM (active)
IC50 (Genome polyprotein): > 100 µM (active)
AC50 (Caspase-6): 14.1 µM (active)

COc1ccc([C@H]2CC(=O)C=C(c3cccc(Cl)c3O)C2)cc1OC
IC50 [10]: 8.62 µM (active)
IC50 [11]: 4.36 µM (active)

COc1cccc2nc3cc(C)c(C)cc3nc12
IC50 [1]: 8.48 µM (active)
EC50 (BJ [12]): 3.31 µM (active)
EC50 [13]: 0.923 µM (active)
CC50 (Vero): 11.7 µM (active)
EC50 (BJ [14]): 3.05 µM (active)
EC50 [15]: 3.01 µM (active)
IC50 (Genome polyprotein): 62.2 µM (active)
EC50 [16]: 7.02 µM (active)
EC50 (BJ [17]): 12.2 µM (inconclusive)
IC50 [3]: 8.2 µM (active)
IC50 [18]: 37.1 µM (inactive)
